# From PubChem BioAssay (NCI)
#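 The concentration for 50% growth inhibition is given as GI50. The concentration for full growth arrest is given as TGI.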
# Columns and labels:
# Experiment in all cases: DTP human tumour cell line panel, 384-well format
# HOP-62 NSCLC = system: HOP-62 NSCLC
# RPMI-8226 leukemia = system: RPMI-8226 leukemia
# HS 578T breast = system: HS 578T breast
# OVCAR-4 ovarian = system: OVCAR-4 ovarian
# CCRF-CEM leukemia = system: CCRF-CEM leukemia
# IGROV1 ovarian = system: IGROV1 ovarian
# M14 melanoma = system: M14 melanoma
# RXF 393 renal = system: RXF 393 renal
# NCI-H226 lung = system: NCI-H226 lung
# OVCAR-8 ovarian = system: OVCAR-8 ovarian
# SNB-19 CNS = system: SNB-19 CNS
# MOLT-4 leukemia = system: MOLT-4 leukemia
# UO-31 renal = system: UO-31 renal
# A498 renal = system: A498 renal
# A549 NSCLC = system: A549 NSCLC
# SN12C renal = system: SN12C renal
# 786-0 renal = system: 786-0 renal
# OVCAR-3 ovarian = system: OVCAR-3 ovarian
# NCI-H522 lung = system: NCI-H522 lung
# ACHN renal = system: ACHN renal
# EKVX NSCLC = system: EKVX NSCLC
# KM12 colon = system: KM12 colon
# NCI-H23 lung = system: NCI-H23 lung
# BT-549 breast = system: BT-549 breast
# CAKI-1 renal = system: CAKI-1 renal
# OVCAR-5 ovarian = system: OVCAR-5 ovarian
# SF-268 CNS = system: SF-268 CNS
# DU-145 prostate = system: DU-145 prostate
# SNB-75 CNS = system: SNB-75 CNS
# K-562 leukemia = system: K-562 leukemia
# HL-60(TB) leukemia = system: HL-60(TB) leukemia
# SK-MEL-28 melanoma = system: SK-MEL-28 melanoma
# MCF7 breast = system: MCF7 breast
# HT29 colon = system: HT29 colon
# MDA-MB-468 breast = system: MDA-MB-468 breast
# U251 glioblastoma = system: U251 glioblastoma
# SF-539 CNS = system: SF-539 CNS
# NCI-H322M lung = system: NCI-H322M lung
# UACC-257 melanoma = system: UACC-257 melanoma
# SF-295 CNS = system: SF-295 CNS
# MDA-MB-231 breast = system: MDA-MB-231 breast
# HCT-116 colon = system: HCT-116 colon
# T-47D breast = system: T-47D breast
# MDA-MB-435 melanoma = system: MDA-MB-435 melanoma
# MALME-3M melanoma = system: MALME-3M melanoma
# TK-10 renal = system: TK-10 renal
# NCI-H460 NSCLC = system: NCI-H460 NSCLC
# HCC-2998 colon = system: HCC-2998 colon
# HCT-15 colon = system: HCT-15 colon
# LOX IMVI melanoma = system: LOX IMVI melanoma
# PC-3 prostate = system: PC-3 prostate
# SK-MEL-5 melanoma = system: SK-MEL-5 melanoma
# SK-OV-3 ovarian = system: SK-OV-3 ovarian
# SW-620 colon = system: SW-620 colon
# HOP-92 NSCLC = system: HOP-92 NSCLC
# NCI/ADR-RES ovarian = system: NCI/ADR-RES ovarian
# SR leukemia = system: SR leukemia
# COLO 205 colon = system: COLO 205 colon
structure (smiles),measurement,setting,value
CC[C@@]1(c2ccccc2)C2=C(CC(C)(C)CC2=O)Nc2[nH]ncc21,GI50,HOP-62 NSCLC,> 100 µM
same,TGI,HOP-62 NSCLC,> 100 µM
same,GI50,RPMI-8226 leukemia,54.7 µM
same,TGI,RPMI-8226 leukemia,> 100 µM
same,GI50,HS 578T breast,64.6 µM
same,TGI,HS 578T breast,> 100 µM
same,GI50,OVCAR-4 ovarian,> 100 µM
same,TGI,OVCAR-4 ovarian,> 100 µM
same,GI50,CCRF-CEM leukemia,> 100 µM
same,TGI,CCRF-CEM leukemia,> 100 µM
same,GI50,IGROV1 ovarian,> 100 µM
same,TGI,IGROV1 ovarian,> 100 µM
same,GI50,M14 melanoma,56.9 µM
same,TGI,M14 melanoma,> 100 µM
same,GI50,RXF 393 renal,66.3 µM
same,TGI,RXF 393 renal,> 100 µM
same,GI50,NCI-H226 lung,> 100 µM
same,TGI,NCI-H226 lung,> 100 µM
same,GI50,OVCAR-8 ovarian,> 100 µM
same,TGI,OVCAR-8 ovarian,> 100 µM
same,GI50,SNB-19 CNS,> 100 µM
same,TGI,SNB-19 CNS,> 100 µM
same,GI50,MOLT-4 leukemia,> 100 µM
same,TGI,MOLT-4 leukemia,> 100 µM
same,GI50,UO-31 renal,47.1 µM
same,TGI,UO-31 renal,> 100 µM
same,GI50,A498 renal,98.6 µM
same,TGI,A498 renal,> 100 µM
same,GI50,A549 NSCLC,> 100 µM
same,TGI,A549 NSCLC,> 100 µM
same,GI50,SN12C renal,> 100 µM
same,TGI,SN12C renal,> 100 µM
same,GI50,786-0 renal,> 100 µM
same,TGI,786-0 renal,> 100 µM
same,GI50,OVCAR-3 ovarian,> 100 µM
same,TGI,OVCAR-3 ovarian,> 100 µM
same,GI50,NCI-H522 lung,> 100 µM
same,TGI,NCI-H522 lung,> 100 µM
same,GI50,ACHN renal,> 100 µM
same,TGI,ACHN renal,> 100 µM
same,GI50,EKVX NSCLC,> 100 µM
same,TGI,EKVX NSCLC,> 100 µM
same,GI50,KM12 colon,> 100 µM
same,TGI,KM12 colon,> 100 µM
same,GI50,NCI-H23 lung,> 100 µM
same,TGI,NCI-H23 lung,> 100 µM
same,GI50,BT-549 breast,> 100 µM
same,TGI,BT-549 breast,> 100 µM
same,GI50,CAKI-1 renal,> 100 µM
same,TGI,CAKI-1 renal,> 100 µM
same,GI50,OVCAR-5 ovarian,> 100 µM
same,TGI,OVCAR-5 ovarian,> 100 µM
same,GI50,SF-268 CNS,> 100 µM
same,TGI,SF-268 CNS,> 100 µM
same,GI50,DU-145 prostate,> 100 µM
same,TGI,DU-145 prostate,> 100 µM
same,GI50,SNB-75 CNS,> 100 µM
same,TGI,SNB-75 CNS,> 100 µM
same,GI50,K-562 leukemia,> 100 µM
same,TGI,K-562 leukemia,> 100 µM
same,GI50,HL-60(TB) leukemia,46.3 µM
same,TGI,HL-60(TB) leukemia,> 100 µM
same,GI50,SK-MEL-28 melanoma,> 100 µM
same,TGI,SK-MEL-28 melanoma,> 100 µM
same,GI50,MCF7 breast,> 100 µM
same,TGI,MCF7 breast,> 100 µM
same,GI50,HT29 colon,> 100 µM
same,TGI,HT29 colon,> 100 µM
same,GI50,MDA-MB-468 breast,30.8 µM
same,TGI,MDA-MB-468 breast,> 100 µM
same,GI50,U251 glioblastoma,96.6 µM
same,TGI,U251 glioblastoma,> 100 µM
same,GI50,SF-539 CNS,> 100 µM
same,TGI,SF-539 CNS,> 100 µM
same,GI50,NCI-H322M lung,> 100 µM
same,TGI,NCI-H322M lung,> 100 µM
same,GI50,UACC-257 melanoma,> 100 µM
same,TGI,UACC-257 melanoma,> 100 µM
same,GI50,SF-295 CNS,50.9 µM
same,TGI,SF-295 CNS,> 100 µM
same,GI50,MDA-MB-231 breast,> 100 µM
same,TGI,MDA-MB-231 breast,> 100 µM
same,GI50,HCT-116 colon,66.9 µM
same,TGI,HCT-116 colon,> 100 µM
same,GI50,T-47D breast,> 100 µM
same,TGI,T-47D breast,> 100 µM
same,GI50,MDA-MB-435 melanoma,> 100 µM
same,TGI,MDA-MB-435 melanoma,> 100 µM
same,GI50,MALME-3M melanoma,> 100 µM
same,TGI,MALME-3M melanoma,> 100 µM
same,GI50,TK-10 renal,45.2 µM
same,TGI,TK-10 renal,> 100 µM
same,GI50,NCI-H460 NSCLC,35 µM
same,TGI,NCI-H460 NSCLC,> 100 µM
same,GI50,HCC-2998 colon,> 100 µM
same,TGI,HCC-2998 colon,> 100 µM
same,GI50,HCT-15 colon,60 µM
same,TGI,HCT-15 colon,> 100 µM
same,GI50,LOX IMVI melanoma,> 100 µM
same,TGI,LOX IMVI melanoma,> 100 µM
same,GI50,PC-3 prostate,> 100 µM
same,TGI,PC-3 prostate,> 100 µM
same,GI50,SK-MEL-5 melanoma,> 100 µM
same,TGI,SK-MEL-5 melanoma,> 100 µM
same,GI50,SK-OV-3 ovarian,> 100 µM
same,TGI,SK-OV-3 ovarian,> 100 µM
same,GI50,SW-620 colon,> 100 µM
same,TGI,SW-620 colon,> 100 µM
same,GI50,HOP-92 NSCLC,> 100 µM
same,TGI,HOP-92 NSCLC,> 100 µM
same,GI50,NCI/ADR-RES ovarian,> 100 µM
same,TGI,NCI/ADR-RES ovarian,> 100 µM
same,GI50,SR leukemia,38.8 µM
same,TGI,SR leukemia,> 100 µM
same,GI50,COLO 205 colon,> 100 µM
same,TGI,COLO 205 colon,> 100 µM
